Data reported in patent US20220133842A1 (priority 2019, published 2022).
Where two headings read alike, the source gives them in different places.

Experiments:
[1] = system: human or porcine epithelial cells

## CO/C1=C\C(C)=C\[C@@H](C)[C@@H](O)[C@@H](C)C/C(C)=C/C=C/[C@H](OC)[C@@H]([C@@H](C)[C@@H](O)[C@H](C)[C@@]2(O)C[C@@H](O)[C@H](C)[C@@H](C(C)C)O2)OC1=O [Bafilomycin A1]
T84 cells
  Apical fraction: 2.5%
  Basal fraction: 30.5%
  Intracellular fraction: 68.0%
Caco-2 cells
  Apical fraction: 0.1%
  Basal fraction: 22.5%
  Intracellular fraction: 77.4%
IPEC-J2 cells
  Apical fraction: 0.1%
  Basal fraction: 28.1%
  Intracellular fraction: 71.8%
[1]
  intracellular accumulation: 19.5-77.4 % of the initial dose

## Cc1ncc([N+](=O)[O-])n1CCO [Metronidazole]
T84 cells; human
  Apical fraction: 71.3%
  Basal fraction: 9.7%
  Intracellular fraction: 19.0%
Caco-2 cells; human
  Apical fraction: 80.2%
  Basal fraction: 12.9%
  Intracellular fraction: 12.7%
IPEC-J2 cells; pig
  Apical fraction: 84.0%
  Basal fraction: 7.1%
  Intracellular fraction: 8.9%
